How the values were obtained:
[1] = Evaluation for the inhibition of kappa opioid binding to bovine striatal membranes by the affinity ligand 1 nM [3H]U-69593
[2] = Evaluation for the inhibition of delta opioid binding to bovine striatal membranes by the affinity ligand 0.2 nM [3H]p-Cl-DPDPE

Question: For CN1CC[C@]23c4c5ccc(O)c4O[C@H]2C(=O)CC[C@@]3(NC(=O)CS)C1C5 [1N-[10-hydroxy-4-methyl-14-oxo-12-oxa-4-azapentacyclo[9.6.1.01,13.05,17.07,18]octadeca-7,9,11(18)-trien-17-yl]-2-sulfanylacetamide], which IC50 [1] is on record?
Answer: The IC50 was 41 nM.

Question: And the IC50 [2]?
Answer: Its IC50 is 12 nM.
